The source made the active and inactive calls. The rule behind the calls is not given here.

A word on the IC50: it is the concentration that gives 50% inhibition.

The test deals with Leishmania donovani growth inhibition. Kind of test: Leishmania donovani growth inhibition (AID 1159560).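 Note: parasites exposed to compound for 72 h before the viability read.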
`NC(=O)c1ccc(-c2cccc(OCCN3CCN(C4CCCCC4)CC3)c2)cc1`: the IC50 is > 50 µM (inactive).

Consider `O=C(Cn1cnc([N+](=O)[O-])n1)Nc1ccc(Cl)cc1C(=O)c1ccccc1`, for which the IC50 was > 50 µM (inactive).

On to `Cc1nc2nc(C)c(Cc3ccc(C(C)C)cc3)c(=O)n2[nH]1`, for which the IC50 is 1.3 µM.

Regarding `C[C@@H](Oc1cc(-n2cnc3cc(N)ccc32)sc1C(N)=O)c1ccccc1Cl`, the concentration for half-maximal inhibition (IC50) was 3.2 µM.

`CN(C)CCOc1ccc(N2CCN(S(=O)(=O)c3ccc(Cl)cc3)CC2)cc1`: the half-maximal inhibitory concentration (IC50) was 40 µM.

Regarding `CNc1cncc(C2CCCN2C(=O)Cc2ccc3ccccc3c2)n1` (stereo not drawn), the IC50 is > 50 µM (inactive).

`Cc1cccc(NS(=O)(=O)c2ccc3c(c2)C(=O)c2cc(S(=O)(=O)Nc4cccc(C)c4C)ccc2-3)c1C`: the IC50 was > 50 µM (inactive).

Consider `COc1ccc2ncc(Cl)c(CCN3CC[C@H](NCc4cc5c(cn4)OCS5)[C@@H](O)C3)c2n1`, for which the 50% inhibitory concentration (IC50) is 2 µM.

For the compound `COc1cc(Cl)c(C)cc1NC(=O)c1ccc([N+](=O)[O-])s1`, the half-maximal inhibitory concentration (IC50) is 7.9 µM.

Turning to `CCc1nn(-c2ncc(F)c(NC(C)C)n2)c(N)c1C1CCCCC1`, the half-maximal inhibitory concentration (IC50) is 3.2 µM.

On to `N#Cc1cccc(Nc2nccc(N3CCC(NS(=O)(=O)c4cccc(C#N)c4)CC3)n2)c1`, for which the IC50 was 0.63 µM.

Turning to `Cc1cc(C)c(C#N)c(SCC(=O)c2ccc3c(c2)OCO3)n1`, the IC50 is > 50 µM (inactive).

For `Cc1ccc(Nc2nc(N)nc(CNC(c3nc4ccccc4[nH]3)C(C)C)n2)cc1` (stereo not drawn), the concentration for half-maximal inhibition (IC50) was 4 µM.

Regarding `CCc1c(C)nc(-n2nc(C)cc2NC(=O)COc2ccccc2F)[nH]c1=O`, the IC50 is 0.13 µM.

With `O=c1ccn(-c2ccc([N+](=O)[O-])cc2Cl)c2ccc(F)cc12`, the IC50 is > 50 µM (inactive).

As to `O=C(Nc1ccccc1)Nc1nc(-c2ccccn2)cs1`, the IC50 was 1.6 µM.

In the case of `N#Cc1ccc(S(=O)(=O)N2CCN(Cc3cccc(-c4ccncc4)c3)CC2)cc1`, the IC50 was > 50 µM (inactive).

Consider `O=C(NCCc1ccccc1Cl)c1cccn1-c1cccnc1`, for which the concentration for half-maximal inhibition (IC50) was 6.3 µM.

For the compound `CC(C)(C)C(=O)Nc1cc(C2CC2)nn1-c1nc2c(c(=O)[nH]1)CCCC2`, the concentration for half-maximal inhibition (IC50) is 0.079 µM.

Regarding `Nc1ncnc2c1ncn2[C@@H]1O[C@H](CO)C[C@H]1O`, the IC50 is > 50 µM (inactive).

Regarding `CS(=O)(=O)NC1CCC(Nc2ncc(Br)c(Nc3ccccc3C(N)=O)n2)CC1` (stereo not drawn), the concentration for half-maximal inhibition (IC50) was 1 µM.

For the compound `COc1cnc2ccc(=O)n(CCN3CCC(NC(=O)c4ccc(Cl)cc4)CC3)c2c1`, the IC50 is 2 µM.

With `CCc1cc(C(=O)Nc2nccn2-c2ccccc2)cs1`, the IC50 is 6.3 µM.

Turning to `O=C(Nc1cccc(Cl)c1)Nc1ccc([N+](=O)[O-])cc1Cl`, the half-maximal inhibitory concentration (IC50) was 6.3 µM.

For `CN(C)S(=O)(=O)c1ccc(-c2cnc(N)c(-c3nc4ccc(F)cc4[nH]3)c2)cc1`, the IC50 was 2.5 µM.

`O=C(NNC(=O)c1ccccn1)c1ccc(-c2ccccc2)cc1`: the half-maximal inhibitory concentration (IC50) is 3.2 µM.

Consider `O=C(Nc1nccs1)c1ccccc1Cn1cc([N+](=O)[O-])cn1`, for which the IC50 was > 50 µM (inactive).

Turning to `Cc1ccc2nc(N(Cc3cccnc3)C(=O)CCc3ccccc3)sc2c1`, the IC50 is 25 µM.

As for `CCCCCNC(=O)c1c[nH]c2ccc(S(=O)(=O)N(C)c3ccc(OCC)cc3)cc2c1=O`, the IC50 was > 50 µM (inactive).

Consider `C=CC[C@@H]1CC=C[C@@H](C)N1C(=O)CCc1nnc(-c2ccc3c(c2)OCO3)o1`, for which the IC50 is 6.3 µM.

Regarding `N#Cc1ccccc1S(=O)(=O)N1CCN(C(=O)CNC(=O)c2ccc3c(c2)OCO3)CC1`, the 50% inhibitory concentration (IC50) is 0.63 µM.

As for `COc1cccc(Nc2cc(C)nc(-c3ccccn3)n2)c1`, the 50% inhibitory concentration (IC50) is 4 µM.

As for `Cc1nn2c(NCCCO)c3c(nc2c1-c1cccs1)CCC3`, the IC50 was 2 µM.

Regarding `CCC(=O)N1N=C(c2ccc3c(c2)CCCC3)Sc2c1ncn2C(=O)CC`, the IC50 is 25 µM.

In the case of `CC(=O)Nc1ccc(Nc2nccc(-c3cnn4ncccc34)n2)cc1C(F)(F)F`, the concentration for half-maximal inhibition (IC50) was 0.2 µM.

For `O=C(NCC1CCCCC1)c1cnns1`, the concentration for half-maximal inhibition (IC50) was 13 µM.

On to `CS(=O)(=O)c1ccccc1C(=O)N(Cc1ccccc1)c1ccccc1`, for which the 50% inhibitory concentration (IC50) was 16 µM.

For the compound `O=C(CCCNC(=O)c1ccc(Cl)cc1)Nc1nc(-c2ccccn2)cs1`, the IC50 is > 50 µM (inactive).

Regarding `CCN(C)Cc1ccc(N2CCC(NS(=O)(=O)c3ccc4c(c3)CCO4)CC2)nc1`, the IC50 was > 50 µM (inactive).

With `O=C(Cc1ccccc1)Nc1ccccc1C(=O)Nc1nccs1`, the IC50 is > 50 µM (inactive).

For `COc1ccc(C(=O)NC2CCN(CCn3c(=O)ccc4ncc(F)cc43)CC2)cc1Cl`, the half-maximal inhibitory concentration (IC50) was 4 µM.

Consider `Cc1[nH]n2c(=O)c3c(nc2c1-c1ccc(Br)cc1)CCCC3`, for which the concentration for half-maximal inhibition (IC50) is 10 µM.

Turning to `O=C(c1ccc(O)c(Cl)c1)N1CCN(c2cnccn2)CC1`, the IC50 is 0.32 µM.

Turning to `CCOc1ccc(CN(C)Cc2nc(N)nc(Nc3ccc(C)cc3)n2)cc1`, the IC50 is 32 µM.

For `COc1cc(Nc2nccc(Nc3onc(C)c3C)n2)cc(S(=O)(=O)C2CCOCC2)c1`, the IC50 was 40 µM.

On to `COc1ccc(NS(=O)(=O)c2cc(-c3cc(C)[nH]n3)ccc2C)cc1OC`, for which the 50% inhibitory concentration (IC50) is 1 µM.

In the case of `COc1ccc(C(=O)[C@H]2C[C@@H]2CN(Cc2ccccn2)Cc2ccccn2)cc1`, the IC50 was 7.9 µM.

`CCOc1cnn(C)c(=O)c1Nc1ccc(C(=O)NCc2ccc(F)cc2)cc1`: the IC50 was 32 µM.

`COc1ccc(-c2cc(C)no2)cc1S(=O)(=O)Nc1ccc(F)c(Cl)c1`: the concentration for half-maximal inhibition (IC50) is 25 µM.

Regarding `CC(C)S(=O)(=O)c1ccc(-c2cnc(N)c3cc(-c4ccnc(N)n4)ccc23)cc1`, the 50% inhibitory concentration (IC50) is 2 µM.

As to `CCN(CC)c1ccc(S(=O)(=O)N(CC)CC)c2nonc12`, the IC50 is 6.3 µM.

For `O=C(CN(Cc1ccccn1)Cc1ccccn1)NCc1ccc(-c2csnn2)cc1`, the IC50 was 7.9 µM.

As for `COc1cccc2sc(CN(C)C(=O)C3CNCCN3c3ccc(F)cc3)c(C)c12` (stereo not drawn), the IC50 was 32 µM.

For the compound `CC(C)(C)C(O)(CCc1ccc(Cl)cc1)Cn1cncn1` (stereo not drawn), the IC50 is 3.2 µM.

Take `O=c1oc2ccccc2n1C1CCN(Cc2ccccc2-c2cccnc2)CC1`: the IC50 was > 50 µM (inactive).

For the compound `NS(=O)(=O)c1ccc(CNC(=O)c2ccc([N+](=O)[O-])s2)cc1`, the concentration for half-maximal inhibition (IC50) was 32 µM.

For the compound `CC(=Cc1ccccc1)CN1CCC(=O)N(Cc2cccnc2)CC1`, the IC50 is > 50 µM (inactive).

Consider `O=C(Cc1ccc2c(c1)CCC2)Nc1n[nH]c(-c2ccccn2)n1`, for which the IC50 was 7.9 µM.

As for `COc1ccc(CN2C(=O)C(O)(CC(=O)c3ccncc3)c3cc(Br)ccc32)cc1OC` (stereo not drawn), the IC50 is 40 µM.

Regarding `Cc1nccn1C1CCCN(C(=O)c2cc3c(F)cccc3s2)C1` (stereo not drawn), the IC50 was 5 µM.

In the case of `O=C(c1ccc(Cl)cc1)c1ccc(OC(=O)N2CCOCC2)cc1`, the concentration for half-maximal inhibition (IC50) is 6.3 µM.

In the case of `O=C(Nc1ccc(C(=O)N2CCCC2c2ccc3c(c2)OCCCO3)cc1)c1ccco1` (stereo not drawn), the half-inhibitory concentration (IC50) is 0.79 µM.

Consider `O=C(NCC1CCCCC1)c1cc(=O)c2ccccc2o1`, for which the IC50 is 5 µM.

As for `CN(C)c1ccc(N)cc1CN(CC1CCCO1)S(C)(=O)=O` (stereo not drawn), the IC50 was 4 µM.

Take `O=S(=O)(NCC(c1cccnc1)N1CCN(c2ccccc2F)CC1)c1ccc(F)cc1` (stereo not drawn): the concentration for half-maximal inhibition (IC50) is 4 µM.

In the case of `Cc1ccc(NC(=O)c2ccc(Cl)c(NC(=O)c3ccc([N+](=O)[O-])cc3)c2)cc1`, the IC50 is > 50 µM (inactive).

Regarding `COc1ccc(CN2CCCCC2c2nc(-c3cccnc3)no2)cc1` (stereo not drawn), the IC50 was > 50 µM (inactive).

As to `O=C(Nc1ccc(C(F)(F)F)cc1)NC1(C(=O)NCc2ccco2)CCCCC1`, the IC50 is 40 µM.

Take `NC(=O)c1cc(F)ccc1Nc1nc(NC2CCC(O)CC2)ncc1Cl` (stereo not drawn): the IC50 was 3.2 µM.

Consider `CC1(C)CCC(=Cc2ccc(Cl)cc2)CC1(O)Cn1ccnc1` (stereo not drawn), for which the IC50 is 2.5 µM.

In the case of `COc1ccc(C(C)N(C)c2ncc3c(N)nc(N)nc3n2)cc1F` (stereo not drawn), the IC50 was 4 µM.

For the compound `COc1cccc(-c2c(C)nn(-c3nc(N)nc(-c4ccccn4)n3)c2N)c1`, the half-inhibitory concentration (IC50) was 5 µM.

`Oc1cccnc1-c1n[nH]c(Cc2ccccc2)n1`: the IC50 was 2 µM.

With `CN(C)c1ncc(-c2cncn2CCOc2ccc(Cl)cc2)cn1`, the IC50 is > 50 µM (inactive).

`Cc1ccccc1OCC(=O)N1CCCN(c2cccnn2)CC1`: the IC50 was 13 µM.

In the case of `CCCNC(=O)Nc1cccc(-c2nc3ncccc3o2)c1`, the IC50 was 3.2 µM.

For the compound `CN(Cc1ccc(F)cc1)c1ccc(OCC(=O)N2CCCCC2c2cccnc2)nn1` (stereo not drawn), the half-maximal inhibitory concentration (IC50) is 16 µM.

With `COc1ccc2ncc(Cl)c(CCN3CC[C@@H](NCc4cc5c(cn4)OCS5)[C@H](O)C3)c2n1`, the half-inhibitory concentration (IC50) is 10 µM.

Consider `CC(Cn1ccnc1)NC(=O)C=Cc1ccc(Cl)cc1` (stereo not drawn), for which the IC50 was > 50 µM (inactive).

For the compound `O=c1cc(NCCCNCc2c[nH]c3ccc(Br)cc23)[nH]c2ccccc12`, the IC50 was > 50 µM (inactive).

Consider `Nc1nccc(-c2csc(Nc3ccc(Cl)cc3)n2)n1`, for which the IC50 is 4 µM.

`COCCn1c(-c2ccc3c(c2)OCO3)cnc1NCc1ccccc1OC`: the IC50 was 13 µM.

Consider `CC(=O)Nc1ccc(-c2ccnc(Nc3cccc(C#N)c3)n2)cc1`, for which the IC50 is 40 µM.

For the compound `COc1ccc(OC)c(NC(=O)c2ccc([N+](=O)[O-])o2)c1`, the IC50 is 25 µM.

In the case of `CCn1nccc1CN(C)C(=O)C=Cc1ccc(Cl)cc1`, the 50% inhibitory concentration (IC50) is 16 µM.

Take `CC(C)c1cc(Nc2cc(Cc3ccccc3)nc(NC3CCC(O)CC3)n2)n[nH]1` (stereo not drawn): the IC50 was 3.2 µM.

Regarding `O=C(NCc1ccncc1)c1ccccc1N1CCCN(C(=O)Cc2ccc(F)c(F)c2)CC1`, the half-inhibitory concentration (IC50) was 2.5 µM.

For the compound `Cc1ccc(NC(=O)c2ccc([N+](=O)[O-])s2)cc1S(=O)(=O)N1CCOCC1`, the IC50 was 2 µM.

On to `CS(=O)(=O)c1cccc(-c2cnc(N)c3c(-c4ccc(CO)cc4)csc23)c1`, for which the IC50 was 40 µM.

`O=C(Nc1cccc(Cl)c1)N1CCCCC1c1cccnc1` (stereo not drawn): the 50% inhibitory concentration (IC50) was 3.2 µM.

With `CC(C)C[C@H](NC(=O)c1ccc(-c2ccccc2)o1)C(=O)NC1(C#N)CC1`, the IC50 was > 50 µM (inactive).

Regarding `O=C1COC(c2ccccc2)(c2ccccc2)CN1C1CCN(Cc2ccc(-n3ccnc3)cc2)CC1`, the half-maximal inhibitory concentration (IC50) was 32 µM.

Regarding `CC1=C(C(=O)Nc2ccc(Cl)cc2)C(c2ccncc2)n2ncc(C(=O)Nc3ccccc3)c2N1` (stereo not drawn), the IC50 is 0.13 µM.

For the origin of these results see PubChem BioAssay AID1159560 (GlaxoSmithKline (GSK), 2015).
